27 compounds from ChEMBL document CHEMBL3763131, “Anion inhibition studies of the β-carbonic anhydrase from the pathogenic bacterium Vibrio cholerae” (Bioorg Med Chem Lett, 2016) can be followed below.

“And” between values parts separate entries of the source, which are not always exact repeats. Equal values may be shown once. Bounds are passed on as bounds.

Target in one assay: not listed separately
Briefly: Inhibition of Vibrio cholerae alpha-carbonic anhydrase preincubated for 15 mins by stopped-flow CO2 hydration assay.
As for `O=S(=O)(O)NS(=O)(=O)O`, the inhibition constant (Ki) – broadly, the equilibrium dissociation constant of an inhibitor or competing ligand from its target – is 88200 µM.
Regarding `O=S(=O)(O)OOS(=O)(=O)O`, the inhibitory constant (Ki) is 84100 µM.
Still for that read-out and setting: with `F[B-](F)(F)F` the figure was over 200000 µM; with `O=[N+]([O-])O`, 670 µM; with `O=[Te](=O)(O)O`, 14500 µM.
The same measure, in the same setting: in the case of `[N-]=[N+]=[N-]` it was 760 µM; in that of `O=C(O)O` [BICARBONATE], 4640 µM and 5130 µM.
The same measure, in the same setting: in the case of `Br` [BROMIDE] it was 28000 µM; in that of `S=C(S)S` [CARBONOTRITHIOIC ACID], 88 µM.
In turn, `N#CO` [CYANATE] showed an inhibitory constant (Ki) of 75 µM.
Same read-out and setting: with `CCN(CC)C(=S)S` [DITIOCARB] the figure was 43 µM.
The compound `F` [FLUORIDE ION] gave a Ki of 800 µM.
As to `Cl` [HYDROCHLORIC ACID], affinity was put at a Ki of 930 µM.
As for `S` [HYDROGEN SULFIDE], the inhibition constant Ki is 74 µM.
On the same count and under the same terms, with `I` [IODIDE] the figure was 9730 µM; with `N=C=[Se]` [ISOSELENOCYANATE], 760 µM; with `N=C=S` [ISOTHIOCYANATE], 820 µM.
Compound `O=NO` [NITROUS ACID] registered a Ki of 34100 µM.
The compound `[O-][Cl+3]([O-])([O-])O` [PERCHLORATE] showed an inhibition constant (Ki) of over 200000 µM.
The same measure, in the same setting: in the case of `O=[As](O)(O)c1ccccc1` [PHENYLARSONIC ACID] it was 23 µM; in that of `OB(O)c1ccccc1` [PHENYLBORONIC ACID], 7 µM.
The same measure, in the same setting: in the case of `O=P(O)(O)OP(=O)(O)O` [PYROPHOSPHORIC ACID] it was 2960 µM; in that of `O=[Se](=O)(O)O` [SELENIC ACID], 60800 µM; in that of `NS(=O)(=O)O` [SULFAMATE], 31 µM.
For the compound `NS(N)(=O)=O` [SULFAMIDE], affinity was put at a Ki of 8 µM.
The same measure, in the same setting: in the case of `O=S(=O)(O)O` [SULFURIC ACID] it was 850 µM; in that of `O=S(O)O` [SULFUROUS ACID], 68 µM.

For another assay, the target named is Carbonic anhydrase 1 (Homo sapiens, UniProt P00915). Briefly: Inhibition of human carbonic anhydrase 1 preincubated for 15 mins by stopped-flow CO2 hydration assay.
Chain of Carbonic anhydrase 1 (P00915 whole entry): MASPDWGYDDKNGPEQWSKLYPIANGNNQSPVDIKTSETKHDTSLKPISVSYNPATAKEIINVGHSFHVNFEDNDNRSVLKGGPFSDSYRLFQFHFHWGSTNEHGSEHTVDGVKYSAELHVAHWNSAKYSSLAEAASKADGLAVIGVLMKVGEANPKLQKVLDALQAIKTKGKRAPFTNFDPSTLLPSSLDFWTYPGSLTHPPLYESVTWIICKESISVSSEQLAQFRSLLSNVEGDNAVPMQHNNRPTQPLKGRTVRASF
The compound `F[B-](F)(F)F` returned an inhibition constant (Ki) of over 200000 µM.
The same measure, in the same setting: with `N=C=[Se]` [ISOSELENOCYANATE] the figure was 8.5 µM.
